# Results from ChEMBL document CHEMBL1201862, “PubChem BioAssay data set” (2004).
# Active and inactive are the calls of the source.
# Columns and labels:
# [1] = molecular target: Sphingosine 1-phosphate receptor 2 (Homo sapiens, UniProt O95136); experiment: Dose Response Cell Based Assay for Agonists of the S1P2 Receptor. [Related pubchem assays: 729, 736, 843 ]; assay type: functional
# [2] = Luminescence-based cell-based high throughput dose response assay to identify activators of the DAF-12 from the parasite S. stercoralis (ssDAF-12).; assay type: functional
# [3] = molecular target: T1, Oxysterols receptor LXR-beta (Homo sapiens, UniProt P55055); experiment: LXR agonists, Gal4 luciferase reporter, dose response, counter-screen for ssDAF-12 agonist project, cell-based, luminescence, HEK293, S. stercoralis campaign (AID 720737); assay type: functional; details: read-out: IC50 (the source's name)
# T1 sequence (P55055 whole entry): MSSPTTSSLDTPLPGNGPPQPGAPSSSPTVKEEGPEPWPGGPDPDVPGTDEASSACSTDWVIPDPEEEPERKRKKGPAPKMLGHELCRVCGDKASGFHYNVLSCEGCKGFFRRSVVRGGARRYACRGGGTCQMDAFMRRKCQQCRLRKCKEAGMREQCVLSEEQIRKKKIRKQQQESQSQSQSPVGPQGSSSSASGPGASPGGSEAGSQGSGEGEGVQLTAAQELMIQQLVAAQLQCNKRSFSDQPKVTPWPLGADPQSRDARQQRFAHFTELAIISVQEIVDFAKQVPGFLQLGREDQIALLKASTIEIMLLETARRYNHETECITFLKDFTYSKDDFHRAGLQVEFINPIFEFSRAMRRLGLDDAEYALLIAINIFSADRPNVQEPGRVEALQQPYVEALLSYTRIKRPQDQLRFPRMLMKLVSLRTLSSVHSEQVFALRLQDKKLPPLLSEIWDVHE
# [4] = Luminescence Cell-Based Dose Confirmation HTS to Identify Activators of 5'UTR Stem-Loop Driven Alpha-Synuclein mRNA Translation in H4 Neuroglioblastoma Cells. [Related pubchem assays: 1829 (Project Summary), 1814 (Primary HTS)]; assay type: functional
# [5] = Luminescence Cell-Based Dose Response HTS to Identify Activators of Luciferase Translation or Activity in H4 […] Cells. [Related pubchem assays: 1829 (Project Summary), 1814 (Primary HTS)]; assay type: functional
# H4 = experiment: Luminescence Cell-Based Dose Response HTS to Identify Activators of 5'UTR Stem-Loop Driven Prion Protein mRNA Translation in H4 Neuroglioblastoma Cells. [Related pubchem assays: 1829 (Project Summary), 1814 (Primary HTS)]; assay type: functional; details: Homo sapiens
# [6] = viability loss in HepG2 liver cells – cell-based, ATP luminescence, cherry-pick, set 6, cytotoxicity control, dose response (AID 1053125); assay type: functional
# [7] = molecular target: T1, Oxysterols receptor LXR-beta; assay type: functional, cell-based
# Vero [8] = experiment: mammalian cell viability reduction – secondary assay, cytotoxicity control for West Nile virus antiviral project, dose response (AID 1650); assay type: functional; details: Chlorocebus sabaeus
# Vero [9] = experiment: inhibition of WNV-induced cytopathic effect – cell-based, CPE readout (AID 1621); assay type: functional; details: Chlorocebus sabaeus
# [10] = test system: Streptococcus sp. 'group A'; experiment: Streptococcus pyogenes SK(-)GAS viability under kanamycin – luminescence, BacTiterGlo, confirmation, counter-screen for streptokinase expression inhibitor project, dose response (AID 1900); assay type: functional, organism-based
# Streptokinase A = molecular target: T2, Streptokinase A (Streptococcus pyogenes serotype M1, UniProt P10520); experiment: viability-normalized secreted streptokinase activity reduction – plasminogen activation absorbance, OD405, dose response (AID 1914); assay type: functional, Streptococcus pyogenes M1 GAS;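 note: secreted streptokinase activity via plasminogen activation per viability signal from cell pellet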
# T2 sequence (P10520 whole entry): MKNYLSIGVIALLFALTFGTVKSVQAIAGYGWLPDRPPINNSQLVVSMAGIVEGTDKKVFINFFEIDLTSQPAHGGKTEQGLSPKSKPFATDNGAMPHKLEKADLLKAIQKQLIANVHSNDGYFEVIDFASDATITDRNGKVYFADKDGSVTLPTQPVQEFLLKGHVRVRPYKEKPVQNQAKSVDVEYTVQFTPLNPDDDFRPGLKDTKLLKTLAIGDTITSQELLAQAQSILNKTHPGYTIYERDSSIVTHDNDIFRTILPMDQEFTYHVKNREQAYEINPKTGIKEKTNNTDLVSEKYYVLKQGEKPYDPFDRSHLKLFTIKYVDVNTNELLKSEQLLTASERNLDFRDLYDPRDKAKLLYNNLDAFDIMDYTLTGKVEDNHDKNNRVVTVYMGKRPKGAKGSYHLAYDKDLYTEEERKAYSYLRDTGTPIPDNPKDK
# Ephrin type-A receptor 4 = Ephrin type-A receptor 4 (Mus musculus, UniProt Q03137); experiment: EphA4 ligand-binding antagonists – biochemical, colorimetric, mouse EphA4, primary screen (AID 689); assay type: functional
# Ephrin type-A receptor 4, sequence (Q03137 whole entry): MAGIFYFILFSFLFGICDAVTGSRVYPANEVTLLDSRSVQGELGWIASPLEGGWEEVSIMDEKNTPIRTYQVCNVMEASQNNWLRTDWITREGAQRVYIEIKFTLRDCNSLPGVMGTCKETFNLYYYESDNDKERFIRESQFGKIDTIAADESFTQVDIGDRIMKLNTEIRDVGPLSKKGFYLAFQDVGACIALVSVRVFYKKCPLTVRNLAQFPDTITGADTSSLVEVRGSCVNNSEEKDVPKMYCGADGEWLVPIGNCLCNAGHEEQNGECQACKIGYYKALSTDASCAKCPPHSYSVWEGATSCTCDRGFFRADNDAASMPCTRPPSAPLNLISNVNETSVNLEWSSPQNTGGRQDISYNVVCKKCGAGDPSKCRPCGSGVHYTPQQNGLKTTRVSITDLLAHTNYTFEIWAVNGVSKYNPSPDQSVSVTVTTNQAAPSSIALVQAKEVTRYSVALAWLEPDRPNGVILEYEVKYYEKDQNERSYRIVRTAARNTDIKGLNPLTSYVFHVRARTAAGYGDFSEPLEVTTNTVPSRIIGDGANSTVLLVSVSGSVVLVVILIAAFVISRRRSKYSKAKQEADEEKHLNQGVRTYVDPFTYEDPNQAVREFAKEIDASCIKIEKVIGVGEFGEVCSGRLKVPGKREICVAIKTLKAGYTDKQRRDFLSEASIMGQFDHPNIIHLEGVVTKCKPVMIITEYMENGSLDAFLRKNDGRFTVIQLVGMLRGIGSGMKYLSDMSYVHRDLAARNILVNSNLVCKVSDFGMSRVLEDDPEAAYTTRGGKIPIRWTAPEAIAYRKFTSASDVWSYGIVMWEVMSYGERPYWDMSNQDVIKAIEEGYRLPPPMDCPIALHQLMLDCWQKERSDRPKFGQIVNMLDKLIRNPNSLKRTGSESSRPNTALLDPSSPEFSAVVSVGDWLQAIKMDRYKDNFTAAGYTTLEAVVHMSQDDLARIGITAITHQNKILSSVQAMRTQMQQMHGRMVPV
# Streptococcus = experiment: GAS UMAA2166 growth inhibition – luminescence, BacTiterGlo, counter-screen for streptokinase expression inhibitor project, dose response (AID 1915); assay type: functional, organism-based;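 note: potency for reduction of bacterial viability or growth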
# [11] = molecular target: Voltage-gated inwardly rectifying potassium channel KCNH2 (Homo sapiens, UniProt Q12809); experiment: concentration-dependent hERG rescue from blockers – cell-based, thallium flux, dose response (AID 2121); assay type: ADME
# Voltage-gated inwardly rectifying potassium channel KCNH2, sequence (Q12809 whole entry): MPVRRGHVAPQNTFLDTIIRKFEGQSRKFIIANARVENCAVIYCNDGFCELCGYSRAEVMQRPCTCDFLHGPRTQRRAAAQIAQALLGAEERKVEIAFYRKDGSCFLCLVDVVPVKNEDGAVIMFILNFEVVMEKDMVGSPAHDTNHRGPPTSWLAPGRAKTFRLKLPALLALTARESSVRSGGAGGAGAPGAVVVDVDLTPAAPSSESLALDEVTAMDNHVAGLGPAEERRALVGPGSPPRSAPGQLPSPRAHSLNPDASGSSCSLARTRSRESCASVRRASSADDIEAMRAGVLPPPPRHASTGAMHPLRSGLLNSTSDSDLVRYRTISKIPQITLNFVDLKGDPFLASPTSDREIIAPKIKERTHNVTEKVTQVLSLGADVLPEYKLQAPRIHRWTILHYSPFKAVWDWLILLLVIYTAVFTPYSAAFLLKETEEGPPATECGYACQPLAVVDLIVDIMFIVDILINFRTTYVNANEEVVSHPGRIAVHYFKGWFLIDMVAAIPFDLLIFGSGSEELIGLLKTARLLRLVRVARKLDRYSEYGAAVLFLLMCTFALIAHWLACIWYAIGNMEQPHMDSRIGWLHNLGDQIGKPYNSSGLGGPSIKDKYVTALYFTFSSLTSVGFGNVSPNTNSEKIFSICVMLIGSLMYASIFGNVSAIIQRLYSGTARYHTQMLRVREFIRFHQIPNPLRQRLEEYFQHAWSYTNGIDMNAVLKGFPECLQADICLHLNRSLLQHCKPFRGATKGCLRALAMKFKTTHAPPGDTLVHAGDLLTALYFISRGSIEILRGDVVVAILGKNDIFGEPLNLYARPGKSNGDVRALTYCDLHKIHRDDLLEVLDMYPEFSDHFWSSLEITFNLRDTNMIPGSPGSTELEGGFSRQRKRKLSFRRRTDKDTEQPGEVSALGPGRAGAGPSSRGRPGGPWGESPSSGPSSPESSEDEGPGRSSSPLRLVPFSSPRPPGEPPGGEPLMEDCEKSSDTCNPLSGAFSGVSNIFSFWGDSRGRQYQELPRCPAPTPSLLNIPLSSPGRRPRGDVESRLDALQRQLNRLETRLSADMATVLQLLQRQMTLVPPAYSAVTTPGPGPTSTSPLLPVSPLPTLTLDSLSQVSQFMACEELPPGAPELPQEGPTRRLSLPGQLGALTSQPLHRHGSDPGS
# [12] = viability of uninfected HEp-2 cells – cell-based, HTS, cytotoxicity control for RSV inhibitor project, dose response (AID 2410); assay type: functional; details: human respiratory syncytial virus
# [13] = molecular target: T1, Oxysterols receptor LXR-beta; assay type: functional, cell-based; remark: listed apart in the source
# NADPH oxidase 1 = molecular target: T3, NADPH oxidase 1 (Homo sapiens, UniProt Q9Y5S8); experiment: Late-stage luminescence-based cell-based dose response assay to identify inhibitors of NADPH oxidase 1 (NOX1): Synthesized analogs 2.; assay type: functional
# T3 sequence (Q9Y5S8 whole entry): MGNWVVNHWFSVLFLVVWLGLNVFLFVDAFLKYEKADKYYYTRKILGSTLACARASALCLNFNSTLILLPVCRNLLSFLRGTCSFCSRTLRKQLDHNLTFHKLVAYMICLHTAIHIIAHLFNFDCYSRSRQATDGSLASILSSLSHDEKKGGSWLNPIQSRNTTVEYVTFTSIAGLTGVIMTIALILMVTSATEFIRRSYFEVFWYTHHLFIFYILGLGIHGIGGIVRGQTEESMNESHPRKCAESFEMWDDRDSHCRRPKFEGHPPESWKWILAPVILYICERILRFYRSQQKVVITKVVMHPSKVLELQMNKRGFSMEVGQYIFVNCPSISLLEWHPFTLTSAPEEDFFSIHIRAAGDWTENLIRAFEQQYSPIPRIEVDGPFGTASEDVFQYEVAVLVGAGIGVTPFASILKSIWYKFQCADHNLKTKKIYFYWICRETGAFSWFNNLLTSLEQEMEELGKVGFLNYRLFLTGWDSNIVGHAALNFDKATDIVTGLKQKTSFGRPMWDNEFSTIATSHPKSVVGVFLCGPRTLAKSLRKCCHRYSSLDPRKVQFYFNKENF
# Sphingosine 1-phosphate receptor 2, sequence (O95136 whole entry): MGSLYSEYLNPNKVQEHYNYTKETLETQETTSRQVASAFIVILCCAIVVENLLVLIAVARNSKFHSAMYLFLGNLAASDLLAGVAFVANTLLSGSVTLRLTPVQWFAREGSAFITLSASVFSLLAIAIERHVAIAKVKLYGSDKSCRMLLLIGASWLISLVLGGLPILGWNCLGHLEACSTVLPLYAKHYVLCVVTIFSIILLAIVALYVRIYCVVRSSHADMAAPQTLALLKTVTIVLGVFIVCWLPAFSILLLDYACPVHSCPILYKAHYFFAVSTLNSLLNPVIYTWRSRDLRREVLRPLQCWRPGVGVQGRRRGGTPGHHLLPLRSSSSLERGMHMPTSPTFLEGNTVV
compound,measurement,setting,value
Cc1ccc(C2CC(=O)c3cnc(N4CCc5ccccc5C4)nc3C2)cc1 (stereo not given),EC50,[1],> 50 µM (not active)
NC(=O)c1ccccc1NC(=O)c1ccc2ccccc2c1,IC50,[2],> 67.6 µM (inactive)
same,EC50,[3],> 67.6 µM (inactive)
Cc1cc(-c2nc3cccnc3s2)ccc1NS(=O)(=O)c1cccs1,EC50,[4],9.73 µM (active)
same,EC50,[5],30.8 µM (active)
same,EC50,H4,0.197 µM (active)
same,AC50,[6],7.51 µM (active)
same,EC50,[7],> 67.5 µM (inactive)
CCN(CC)S(=O)(=O)c1ccc2nc(O)c3ccccc3c2c1,CC50,Vero [8],38.9 µM (active)
same,IC50,Vero [9],45.5 µM (active)
CCC(C)COC(=O)C(C#N)c1nc2ccccc2nc1N1CCCCC1 (stereo not given),EC50,[10],41.9 µM (active)
same,EC50,Streptokinase A,> 150 µM (not active)
same,IC50,Ephrin type-A receptor 4,17.5 µM (active)
same,EC50,Streptococcus,150 µM (active)
CCOC(=O)c1sc2nc(Cc3ccc(Cl)cc3)[nH]c(=S)c2c1C,EC50,Streptokinase A,> 150 µM (not active)
same,EC50,[11],0.92 µM (active)
COc1ccccc1Nc1nc(-c2cccs2)cs1,CC50,[12],47.2 µM (active)
same,EC50,[13],> 67.5 µM (inactive)
same,EC50,cells,> 67.5 µM (inactive)
CN1c2ccccc2Sc2cc(NC(=O)c3ccc(C(=O)c4ccccc4)cc3)ccc21,IC50,NADPH oxidase 1,> 50 µM (not active)
